Test results: ChEMBL document CHEMBL5247622, “Structural optimization of Imidazo[1, 2-a]pyridine derivatives for the treatment of gastric cancer via STAT3 signaling pathway” (Eur J Med Chem, 2022)
Active and inactive are the calls of the source. The rule behind the calls is not given here.

Tests used:
AGS [1] = assay: Induction of apoptosis in human AGS cells assessed as early apoptotic cells at 1 uM incubated for 48 hrs by Annexin V-FITC/PI staining based flow cytometry method (reference value: 2.38 %); assay type: functional
[2] = molecular target: Signal transducer and activator of transcription 3 (Homo sapiens) (UniProt P40763); assay: Inhibition of STAT3 in human MGC-803 cells assessed as inhibition of STAT3 phosphorylation level at Tyr705 at 0.3 to 3 uM by western blot assay; assay type: cell-based; settings: dose 0.3-3 µM
[3] = Toxicity in BALB/c mouse xenografted with human MGC-803 cells assessed as morphological change in lung at 5 mg/kg,ip administrated for 21 consecutive days by hematoxylin and eosin staining method; assay type: organism-based; settings: in vivo
MGC-803 [4] = assay: Antitumor activity against human MGC-803 cells xenografted in BALB/c mouse assessed as tumor growth inhibition at 15 mg/kg,ip administrated for 21 consecutive days relative to control; assay type: functional; settings: read-out: TGI
[5] = molecular target: Signal transducer and activator of transcription 3 (Homo sapiens) (UniProt P40763); assay: In vivo inhibition of STAT3 in BALB/c mouse xenografted with human MGC-803 cells assessed as reduction of c-Myc expression in tumor at 5 mg/kg,ip administrated for 21 consecutive days by immunohistochemistry analysis; assay type: functional, organism-based
AGS [6] = assay: Antiproliferative activity against human AGS cells assessed as reduction in cell viability incubated for 72 hrs by CCK-8 assay; assay type: functional, cell-based
AGS [7] = assay: Induction of apoptosis in human AGS cells assessed as late apoptotic cells at 1 uM incubated for 48 hrs by Annexin V-FITC/PI staining based flow cytometry method (reference value: 2.46 %); assay type: functional
MGC-803 [8] = assay: Inhibition of cell migration in human MGC-803 cells at 0.03 to 0.3 uM incubated for 48 hrs by wound healing assay based microscopic analysis; assay type: functional; settings: dose 0.03-0.3 µM
AGS [9] = assay: Induction of apoptosis in human AGS cells assessed as viable cells at 1 uM incubated for 48 hrs by Annexin V-FITC/PI staining based flow cytometry method (reference value: 94.8 %); assay type: functional; settings: read-out: Activity
MGC-803 [10] = assay: Antitumor activity against human MGC-803 cells xenografted in BALB/c mouse assessed as inhibition of tumor volume at 5 to 15 mg/kg,ip administrated for 21 consecutive days; assay type: functional, organism-based; settings: dose 5-15 mg/kg
[11] = molecular target: T1, Signal transducer and activator of transcription 1-alpha/beta (Homo sapiens) (UniProt P42224); assay: Inhibition of STAT1 in human AGS cells assessed as inhibition of STAT1 phosphorylation level at Tyr701 at 0.3 to 3 uM by western blot assay; assay type: cell-based; settings: dose 0.3-3 µM
T1 sequence (whole entry): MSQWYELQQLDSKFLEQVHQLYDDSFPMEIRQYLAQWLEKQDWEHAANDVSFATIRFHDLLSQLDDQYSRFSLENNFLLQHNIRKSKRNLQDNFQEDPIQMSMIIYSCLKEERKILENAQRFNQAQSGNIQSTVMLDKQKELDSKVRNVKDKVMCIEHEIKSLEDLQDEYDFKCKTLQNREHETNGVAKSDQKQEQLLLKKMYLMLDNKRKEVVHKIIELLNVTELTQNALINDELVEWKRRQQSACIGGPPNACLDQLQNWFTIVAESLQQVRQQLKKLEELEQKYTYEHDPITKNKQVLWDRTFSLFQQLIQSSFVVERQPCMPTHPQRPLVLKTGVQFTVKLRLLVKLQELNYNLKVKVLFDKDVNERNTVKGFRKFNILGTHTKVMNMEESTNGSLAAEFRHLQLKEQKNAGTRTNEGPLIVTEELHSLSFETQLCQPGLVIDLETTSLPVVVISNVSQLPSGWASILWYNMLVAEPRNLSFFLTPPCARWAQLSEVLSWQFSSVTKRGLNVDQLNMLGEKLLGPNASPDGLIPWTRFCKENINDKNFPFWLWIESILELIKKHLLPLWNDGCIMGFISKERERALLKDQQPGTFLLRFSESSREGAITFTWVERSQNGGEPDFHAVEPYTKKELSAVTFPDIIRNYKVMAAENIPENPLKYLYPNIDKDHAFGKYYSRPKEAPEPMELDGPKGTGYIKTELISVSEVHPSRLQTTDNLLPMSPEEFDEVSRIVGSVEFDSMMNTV

MGC-803 [12] = assay: Antitumor activity against human MGC-803 cells xenografted in BALB/c mouse assessed as inhibition of tumor weight at 5 to 15 mg/kg,ip administrated for 21 consecutive days; assay type: functional, organism-based; settings: dose 5-15 mg/kg
[13] = Metabolic stability in human liver microsomes assessed as half life; assay type: ADME, Microsome
AGS [14] = assay: Inhibition of colony formation in human AGS cells at 0.3 to 3 uM incubated for 10 to 15 days by crystal violet staining based assay; assay type: functional, cell-based; settings: dose 0.3-3 µM, time 10-15 day
MGC-803 [15] = assay: Inhibition of cell invasion in human MGC-803 cells at 0.03 to 0.3 uM incubated for 12 hrs by crystal violet staining based transwell assay; assay type: functional; settings: dose 0.03-0.3 µM
AGS [16] = assay: Induction of apoptosis in human AGS cells assessed as late apoptotic cells at 3 uM incubated for 48 hrs by Annexin V-FITC/PI staining based flow cytometry method (reference value: 2.46 %); assay type: functional
[17] = Toxicity in BALB/c mouse xenografted with human MGC-803 cells assessed as morphological change in kidney at 15 mg/kg,ip administrated for 21 consecutive days by hematoxylin and eosin staining method; assay type: organism-based; settings: in vivo
[18] = Toxicity in BALB/c mouse xenografted with human MGC-803 cells assessed as morphological change in spleen at 5 mg/kg,ip administrated for 21 consecutive days by hematoxylin and eosin staining method; assay type: organism-based; settings: in vivo
[19] = Toxicity in BALB/c mouse xenografted with human MGC-803 cells assessed as morphological change in heart at 5 mg/kg,ip administrated for 21 consecutive days by hematoxylin and eosin staining method; assay type: organism-based; settings: in vivo
AGS [20] = assay: Induction of apoptosis in human AGS cells assessed as early apoptotic cells at 0.3 uM incubated for 48 hrs by Annexin V-FITC/PI staining based flow cytometry method (reference value: 2.38 %); assay type: functional
[21] = Toxicity in BALB/c mouse xenografted with human MGC-803 cells assessed as morphological change in liver at 15 mg/kg,ip administrated for 21 consecutive days by hematoxylin and eosin staining method; assay type: organism-based; settings: in vivo
[22] = molecular target: Signal transducer and activator of transcription 3 (Homo sapiens) (UniProt P40763); assay: Inhibition of HA-tagged STAT3 (unknown origin) dimerization transfected in HEK293T cells at 0.3 to 3 uM incubated for 24 hrs followed by IL-6 stimulation and measured after 1 hr by immunoprecipitation assay; assay type: cell-based; settings: dose 0.3-3 µM, time 25.0 hrs
[23] = Toxicity in BALB/c mouse xenografted with human MGC-803 cells assessed as morphological change in lung at 15 mg/kg,ip administrated for 21 consecutive days by hematoxylin and eosin staining method; assay type: organism-based; settings: in vivo
AGS [24] = assay: Induction of apoptosis in human AGS cells assessed as late apoptotic cells at 0.3 uM incubated for 48 hrs by Annexin V-FITC/PI staining based flow cytometry method (reference value: 2.46 %); assay type: functional

Sequence of Signal transducer and activator of transcription 3 (Homo sapiens) (P40763 whole entry): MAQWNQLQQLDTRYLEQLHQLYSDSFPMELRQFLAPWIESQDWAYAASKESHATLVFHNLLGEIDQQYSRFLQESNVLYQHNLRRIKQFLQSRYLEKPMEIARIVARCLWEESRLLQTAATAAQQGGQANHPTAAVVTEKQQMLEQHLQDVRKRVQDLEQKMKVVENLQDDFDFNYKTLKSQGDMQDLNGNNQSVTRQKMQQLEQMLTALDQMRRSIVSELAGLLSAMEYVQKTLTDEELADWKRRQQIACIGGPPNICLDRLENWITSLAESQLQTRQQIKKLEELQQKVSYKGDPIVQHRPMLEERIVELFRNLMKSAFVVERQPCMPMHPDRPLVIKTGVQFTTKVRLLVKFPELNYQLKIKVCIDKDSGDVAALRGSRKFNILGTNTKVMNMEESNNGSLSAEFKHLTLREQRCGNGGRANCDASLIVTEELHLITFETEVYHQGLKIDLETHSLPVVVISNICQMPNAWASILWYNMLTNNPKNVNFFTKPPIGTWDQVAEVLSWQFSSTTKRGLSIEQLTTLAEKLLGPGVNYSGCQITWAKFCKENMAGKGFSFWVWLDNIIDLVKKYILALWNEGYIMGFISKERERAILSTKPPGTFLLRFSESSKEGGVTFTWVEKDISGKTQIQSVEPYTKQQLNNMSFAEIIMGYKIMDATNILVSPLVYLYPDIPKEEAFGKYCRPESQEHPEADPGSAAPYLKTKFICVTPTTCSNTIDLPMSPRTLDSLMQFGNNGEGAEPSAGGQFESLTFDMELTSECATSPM

inhibition [2]: Dose-Dependent Effect
inhibition [5]: Active
IC50 (AGS [6]): 390 nM
inhibition [11]: inactive
half-life [13]: 41.2 min
inhibition [22]: Dose-Dependent Effect
Structure (SMILES): Cc1cc(NC(=O)c2ccc([N+](=O)[O-])o2)ccc1-c1cnc2ccccn12
Activity (AGS [1]): 4.52%
Activity [3]: Non-Toxic
inhibition in vivo at 15 mg/kg (MGC-803 [4]): 73.4%
Activity (AGS [7]): 2.67%
inhibition (MGC-803 [8]): Dose-Dependent Effect
viability at 1 µM (AGS [9]): 92.1%
inhibition (MGC-803 [10]): Dose-Dependent Effect
inhibition (MGC-803 [12]): Dose-Dependent Effect
inhibition (AGS [14]): Dose-Dependent Effect
inhibition (MGC-803 [15]): Active
Activity (AGS [16]): 6.37%
Activity [17]: Non-Toxic
Activity [18]: Non-Toxic
Activity [19]: Non-Toxic
Activity (AGS [20]): 2.49%
Activity [21]: Non-Toxic
Activity [23]: Non-Toxic
Activity (AGS [24]): 3.15%
